The values that follow come from US11352372B2, “Benzimidamides compounds comprising an oxaborinin ring” (INSTITUT NATIONAL DE LA SANTÉ ET DE LA RECHERCHE MÉDICALE …, priority 2018, dated 2022).

Where a name gives a salt, the structure may show the parent alone.

The first assay deals with T1, human kallikrein 5 recombinant enzyme (KLK5) (Homo sapiens, UniProt Q9Y337).
T1 construct: The cleaved protein was then further purified on a 1 mL Heparin HP HITRAP column; 6His (cleaved yes); FLAG (cleaved yes); made in house; host or cells: Spodoptera frugiperda Super 9 insect cells (baculovirus, BAC-TO-BAC)
T1 sequence (Q9Y337 67-293 limits assumed): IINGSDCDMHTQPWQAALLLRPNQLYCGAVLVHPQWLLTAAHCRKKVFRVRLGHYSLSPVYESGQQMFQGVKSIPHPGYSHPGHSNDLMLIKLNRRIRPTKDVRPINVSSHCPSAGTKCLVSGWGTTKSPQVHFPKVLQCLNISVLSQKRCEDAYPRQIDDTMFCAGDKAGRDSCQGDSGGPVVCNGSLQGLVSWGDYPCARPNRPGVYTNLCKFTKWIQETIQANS
As to the kind of experiment: Kinetic FLINT KLK5 assay. It counts as biochemical. As to conditions: 7.5 nM KLK5, 9 uM (Tos-Gly-Pro-Arg)2[R110] substrate, pH 8; each compound tested more than once. The protocol:
Recombinant KLK5 protein was generated from a recombinant baculovirus using the BAC-TO-BAC system (INVITROGEN) (pFastBac_hKLK5_6His-Q-FLAG) expressed in 5 L of Spodoptera frugiperda Super 9 insect cells with a viral infection rate of 1.0. The protein was secreted into HYCLONE SFX growth media (GE HEALTHCARE) from which it was extracted on a 5 mL HISTRAP EXCEL column (GE HEALTHCARE). The column was washed with 500 mM NaCl, 20 mM Tris pH 7.4 buffer and the protein eluted using 500 mM imidazole in 250 mM NaCl, 20 mM Tris pH 7.4 buffer. The eluent was captured on a 5 mL ANTI-FLAG M2 Affinity Gel column (SIGMA). KLK5 was eluted by competing off the bound protein with 0.2 mg/mL FLAG peptide (SIGMA) in 50 mM NaCl, 20 mM Tris-HCl pH 7.4 buffer. 1 M CaCl2 was added to the pooled fractions to a final concentration 2 mM and these were treated with 0.1 U of enterokinase (NOVAGEN) per μg of target protein. The proteins were incubated at room temperature for ˜48 h. The cleaved protein was then further purified on a 1 mL Heparin HP HITRAP column (GE HEALTHCARE) in 20 mM MOPS, pH 6.8 buffer, washed with 100 mM NaCl in 20 mM MOPS, pH 6.8 buffer and eluted with 700 mM NaCl in this buffer. Fractions containing KLK5 were pooled and concentrated using an AMICON concentrator with a molecular weight cut off of 10000 Da. For cryoprotection, glycerol was added to a final concentration of 50%. All purifications were carried out using a semi-automated ÄKTA systems from GE HEALTHCARE.
11 point, 3-fold serial dilutions of each supporting compound were prepared in DMSO and 50 nL of these solutions were dispensed into black LV 384-well plates (GREINER BIO-ONE, Stonehouse, UK) using an ECHO 555 acoustic dispenser (LABCYTE, Sunnyvale, Calif.). This gave a final assay concentration range between 10 μM and […] in 5 μL final assay volume. 50 nL DMSO was dispensed into columns 6 and 18 for high and low controls, respectively. The assay plates were sealed and stored at 4° C. until required.
Conditions for the assay of human kallikrein 5 recombinant enzyme (KLK5), were 100 mM sodium phosphate, pH 8, 1 mM CHAPS, 7.5 nM KLK5 enzyme (see above for preparation), 9 uM peptide substrate ((Tos-Gly-Pro-Arg)2[R110].2TFA) in a total reaction volume of 5 μL.
Assays were performed by initially dispensing 2.5 μL of an enzyme solution (15 nM KLK5 in sodium phosphate, pH 8, 1 mM CHAPS) into all wells of the assay plate (except for column 18) then, 2.5 μL of buffer to column 18 (to generate low controls). Reactions were initiated by addition of 2.5 μL of substrate solution [18 uM (Tos-Gly-Pro-Arg)2[R110].2TFA (Cambridge Research Biochemicals) in sodium phosphate, pH 8, 1 mM CHAPS] to all wells. Plates were immediately centrifuged to reach 1000 rpm before transfer to the reader. All additions were made using a MULTIDROP COMBI dispenser (THERMO FISHER SCIENTIFIC). The assay plates were transferred to a PERKIN ELMER VIEWLUX. The plates were excited at 485 nm and the rates of Rhodamine110 fluorecent emission measured at 535 nm, following cleavage of the substrate by KLK5. Ten measurements were taken over 5 minutes with a read interval of 30 seconds.
From the raw data, the enzyme reaction rates were calculated as relative fluorescence units (RFU). Using the 10 reads collected, per well, a straight line was fitted through data. Initial rates were calculated from the slope of the reaction progress curves. The rate data was normalised to % inhibition between high controls in column 6 (0% inhibition) and low controls in column 18 (100% inhibition). Dose response curves were fitted using the IDBS Primary module fit. The data were fitted by means of a four-parameter fit logistic:
Where x is the inhibitor concentration, y is inhibition (%), A is the minimum response, D is the maximum response, C is the IC50 for the curve and B is the Hill slope. The −log(IC50) gives the pIC50.
With `Cl.N=C(N)c1ccc(C2Cc3ccccc3B(O)O2)cc1OCc1cccnc1` (centres unmarked) [Compound 8, 4-(1-hydroxy-3,4-dihydro-1H-benzo[c][1,2]oxaborinin-3-yl)-2-(pyridin-3-ylmethoxy)benzimidamide], the “average pIC50” value was found to be 8.2.

For the compound `Cl.N=C(N)c1ccc(C2Cc3ccc(C(F)(F)F)cc3B(O)O2)cc1OCc1cccnc1` (centres unmarked) [Compound 1, 4-(1-Hydroxy-7-(trifluoromethyl)-3,4-dihydro-1H-benzo[c][1,2]oxaborinin-3-yl)-2-(pyridin-3-ylmethoxy)benzimidamide hydrochloride salt], the “average pIC50” value is on record as 8.5.

As for `Cl.N=C(N)c1ccc(C2Cc3cc(Cl)c(F)cc3B(O)O2)cc1OCc1cccnc1` (centres unmarked) [Compound 7, 4-(6-chloro-7-fluoro-1-hydroxy-3,4-dihydro-1H-benzo[c][1,2]oxaborinin-3-yl)-2-(pyridin-3-ylmethoxy)benzimidamide], the “average pIC50” value is on record as 8.1.

The same assay, now with this note: 7.5 nM KLK5, 9 uM (Tos-Gly-Pro-Arg)2[R110] substrate, pH 8; each compound tested more than once; read-out: average pIC50 (converted).
For the compound `N=C(N)c1ccc([C@H]2Cc3ccc(C(F)(F)F)cc3B(O)O2)cc1OCc1cccnc1` [Compound 2, (R)-4-(1-hydroxy-7-(trifluoromethyl)-3,4-dihydro-1H-benzo[c][1,2]oxaborinin-3-yl)-2-(pyridin-3-ylmethoxy)benzimidamide hydrochloride salt], the IC50 was 3.98 nM.

For the compound `N=C(N)c1ccc([C@H]2Cc3ccc(C(F)(F)F)cc3B(O)O2)cc1OCc1cccnc1` [Compound 3, (R)-4-(1-hydroxy-7-(trifluoromethyl)-3,4-dihydro-1H-benzo[c][1,2]oxaborinin-3-yl)-2-(pyridin-3-ylmethoxy)benzimidamide], the IC50 was 39.8 nM.

On to `N=C(N)c1ccc(C2Cc3ccc(C(F)(F)F)cc3B(O)O2)cc1` (centres unmarked) [Compound 6, 4-(1-hydroxy-7-(trifluoromethyl)-3,4-dihydro-1H-benzo[c][1,2]oxaborinin-3-yl)benzimidamide], for which the IC50 was 10 nM.

With `N=C(N)c1ccc([C@@H]2Cc3ccc(C(F)(F)F)cc3B(O)O2)cc1OCc1cccnc1` [Compound 4], the IC50 is 3.98 nM.

With `N=C(N)c1ccc(C2Cc3ccc(C(F)(F)F)cc3B(O)O2)cc1OCc1cccc(Cl)c1` (centres unmarked) [Compound 5, 2-((3-chlorobenzyl)oxy)-4-(1-hydroxy-7-(trifluoromethyl)-3,4-dihydro-1H-benzo[c][1,2]oxaborinin-3-yl)benzimidamide], the IC50 is 7.94 nM.
